Assay results from PubChem BioAssay AID248 (DTP/NCI, 2004).
Several values for one entry are separate records, joined by “and”; a condition that tells them apart may be missing. Equal values may be shown once. Toxic doses and inconclusive results are not listed. Rule as the data show it: active = T/C of 150% or more; inactive = T/C below 125%.

System: L1210 leukemia ip in BDF1 mice, survival T/C
Experiment: NCI In Vivo Anticancer Drug Screen. Data for tumor model L1210 Leukemia (intraperitoneal) in B6D2F1 (BDF1) mice
Details: endpoint: mean survival time, higher = longer survival
Method in brief: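 Read-out is survival time, reported as the treated-group measurement over the vehicle-control measurement.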

[1] = dose: 100.0 mg/kg/injection, schedule: Q04DX003 (ip), vehicle: Klucel (hydroxypropylcellulose) (HPC)
[2] = dose: 200.0 mg/kg/injection, schedule: Q04DX003 (ip), vehicle: Klucel (hydroxypropylcellulose) (HPC)
[3] = dose: 100.0 mg/kg/injection, schedule: Q04DX003 (ip), vehicle: saline
[4] = dose: 200.0 mg/kg/injection, schedule: Q04DX003 (ip), vehicle: saline

Measured: T/C

O=C1C(=C(C(F)(F)Cl)C(F)(F)Cl)C2CCC1C2 (stereo unspecified)
inactive: dose: 6.25 mg/kg/injection, schedule: Q01DX009 (ip), vehicle: saline with Tween-80 95 % of control | dose: 12.0 mg/kg/injection, schedule: Q01DX001 (ip), vehicle: saline with Tween-80 104 % of control | dose: 12.5 mg/kg/injection, schedule: Q01DX009 (ip), vehicle: saline with Tween-80 95 % of control | dose: 25.0 mg/kg/injection, schedule: Q01DX001 (ip), vehicle: saline with Tween-80 100 % of control | dose: 25.0 mg/kg/injection, schedule: Q01DX009 (ip), vehicle: saline with Tween-80 102 % of control and 92 % of control | dose: 50.0 mg/kg/injection, schedule: Q01DX001 (ip), vehicle: saline with Tween-80 100 % of control | dose: 50.0 mg/kg/injection, schedule: Q01DX009 (ip), vehicle: saline with Tween-80 107 % of control | dose: 100.0 mg/kg/injection, schedule: Q01DX001 (ip), vehicle: saline with Tween-80 91 % of control

CC(=O)OCC1OC(n2cnc3c(=S)nc(N)[nH]c32)CC1OC(C)=O (stereo unspecified)
inactive: dose: 2.5 mg/kg/injection, schedule: Q01DX002 (ip), vehicle: Klucel (hydroxypropylcellulose) (HPC) 118 % of control | dose: 5.0 mg/kg/injection, schedule: Q04DX003 (ip), vehicle: Klucel (hydroxypropylcellulose) (HPC) 117 % of control | dose: 10.0 mg/kg/injection, schedule: Q01DX002 (ip), vehicle: Klucel (hydroxypropylcellulose) (HPC) 119 % of control | dose: 10.0 mg/kg/injection, schedule: Q04DX003 (ip), vehicle: Klucel (hydroxypropylcellulose) (HPC) 121 % of control | dose: 20.0 mg/kg/injection, schedule: Q01DX002 (ip), vehicle: Klucel (hydroxypropylcellulose) (HPC) 123 % of control

C[n+]1c(-c2cccc3ccccc23)c2cc([N+](=O)[O-])ccc2c2ccccc21
inactive: dose: 6.25 mg/kg/injection, schedule: Q01DX009 (ip), vehicle: water 104 % of control | dose: 12.5 mg/kg/injection, schedule: Q01DX009 (ip), vehicle: water 100 % of control | dose: 12.5 mg/kg/injection, schedule: Q04DX003 (ip), vehicle: water 98 % of control | dose: 25.0 mg/kg/injection, schedule: Q04DX003 (ip), vehicle: water 105 % of control | dose: 50.0 mg/kg/injection, schedule: Q04DX003 (ip), vehicle: water 93 % of control

Cc1cc(C)nc(NC(=O)COc2ccc(Cl)cc2)c1
inactive: dose: 50.0 mg/kg/injection, schedule: Q01DX009 (ip), vehicle: Klucel (hydroxypropylcellulose) (HPC) 97 % of control | dose: 100.0 mg/kg/injection, schedule: Q01DX009 (ip), vehicle: Klucel (hydroxypropylcellulose) (HPC) 100 % of control | [1] 101 % of control | dose: 200.0 mg/kg/injection, schedule: Q01DX009 (ip), vehicle: Klucel (hydroxypropylcellulose) (HPC) 93 % of control | [2] 97 % of control

CCCCSP(SCCCC)N1CCCCC1
inactive: [3] 102 % of control | [4] 98 % of control

CN=C(NC)c1ccc(NC(=O)c2ccc(C(=O)Nc3ccc(C(=NC)NC)c(C)c3)cc2)cc1C
inactive: dose: 4.4 mg/kg/injection, schedule: Q01DX Z (ip), vehicle: carboxymethylcellulose (CMC) 98 % of control | dose: 6.6 mg/kg/injection, schedule: Q01DX Z (ip), vehicle: carboxymethylcellulose (CMC) 102 % of control | dose: 10.0 mg/kg/injection, schedule: Q01DX Z (ip), vehicle: carboxymethylcellulose (CMC) 100 % of control | dose: 15.0 mg/kg/injection, schedule: Q01DX Z (ip), vehicle: carboxymethylcellulose (CMC) 107 % of control and 108 % of control and 112 % of control | dose: 22.5 mg/kg/injection, schedule: Q01DX Z (ip), vehicle: carboxymethylcellulose (CMC) 111 % of control | dose: 30.0 mg/kg/injection, schedule: Q01DX Z (ip), vehicle: carboxymethylcellulose (CMC) 96 % of control | dose: 35.0 mg/kg/injection, schedule: Q01DX Z (ip), vehicle: carboxymethylcellulose (CMC) 100 % of control

O=c1[nH]cc(C(F)(F)F)c(=O)[nH]1
inactive: dose: 4.0 mg/kg/injection, schedule: Q01DX Z (oral), vehicle: methylcellulose (MC) 106 % of control | dose: 8.0 mg/kg/injection, schedule: Q01DX Z (oral), vehicle: methylcellulose (MC) 102 % of control | dose: 12.0 mg/kg/injection, schedule: Q01DX Z (oral), vehicle: methylcellulose (MC) 103 % of control and 91 % of control | dose: 16.0 mg/kg/injection, schedule: Q01DX Z (oral), vehicle: methylcellulose (MC) 90 % of control | dose: 50.0 mg/kg/injection, schedule: Q01DX Z (ip), vehicle: saline 103 % of control | dose: 100.0 mg/kg/injection, schedule: Q01DX Z (ip), vehicle: saline 107 % of control | dose: 200.0 mg/kg/injection, schedule: Q01DX Z (ip), vehicle: saline 116 % of control and 123 % of control | dose: 300.0 mg/kg/injection, schedule: Q01DX Z (ip), vehicle: saline 124 % of control | dose: 400.0 mg/kg/injection, schedule: Q01DX Z (ip), vehicle: saline 98 % of control | dose: 500.0 mg/kg/injection, schedule: Q01DX Z (ip), vehicle: saline 117 % of control | dose: 500.0 mg/kg/injection, schedule: Q01DX Z (oral), vehicle: methylcellulose (MC) 111 % of control | dose: 1000.0 mg/kg/injection, schedule: Q01DX Z (oral), vehicle: methylcellulose (MC) 93 % of control | dose: 1500.0 mg/kg/injection, schedule: Q01DX Z (oral), vehicle: methylcellulose (MC) 94 % of control | dose: 2000.0 mg/kg/injection, schedule: Q01DX Z (oral), vehicle: methylcellulose (MC) 88 % of control

O=C(Nc1cc(Cl)c(Cl)cc1Cl)Nc1cc(Cl)ccc1Oc1ccc(Cl)cc1S(=O)(=O)O
inactive: dose: 50.0 mg/kg/injection, schedule: Q04DX003 (ip), vehicle: alcohol 97 % of control | dose: 100.0 mg/kg/injection, schedule: Q04DX003 (ip), vehicle: alcohol 103 % of control | dose: 200.0 mg/kg/injection, schedule: Q04DX003 (ip), vehicle: alcohol 103 % of control

O=C(O)C1C2CCCCC21 (stereo unspecified)
inactive: dose: 100.0 mg/kg/injection, schedule: Q01DX009 (ip), vehicle: saline 97 % of control | [3] 102 % of control | dose: 200.0 mg/kg/injection, schedule: Q01DX009 (ip), vehicle: saline 97 % of control | [4] 103 % of control | dose: 400.0 mg/kg/injection, schedule: Q01DX009 (ip), vehicle: saline 90 % of control | dose: 400.0 mg/kg/injection, schedule: Q04DX003 (ip), vehicle: saline 94 % of control

O=C(Nc1ccc2ccccc2c1)c1ccccc1
inactive: dose: 100.0 mg/kg/injection, schedule: Q01DX009 (ip), vehicle: saline sonified 104 % of control | [1] 97 % of control | dose: 200.0 mg/kg/injection, schedule: Q01DX009 (ip), vehicle: saline sonified 96 % of control | [2] 93 % of control | dose: 400.0 mg/kg/injection, schedule: Q01DX009 (ip), vehicle: saline sonified 93 % of control | dose: 400.0 mg/kg/injection, schedule: Q04DX003 (ip), vehicle: Klucel (hydroxypropylcellulose) (HPC) 92 % of control

Oc1ccc(C2(c3ccc(O)cc3)CCCCC2)cc1
inactive: dose: 25.0 mg/kg/injection, schedule: Q01DX009 (ip), vehicle: alcohol 112 % of control | dose: 50.0 mg/kg/injection, schedule: Q01DX009 (ip), vehicle: alcohol 117 % of control | dose: 100.0 mg/kg/injection, schedule: Q01DX009 (ip), vehicle: alcohol 87 % of control | dose: 100.0 mg/kg/injection, schedule: Q01DX009 (ip), vehicle: saline with Tween-80 89 % of control | dose: 200.0 mg/kg/injection, schedule: Q01DX009 (ip), vehicle: saline with Tween-80 92 % of control
